Source: US8747537B2, “Ink containing heterocyclic azo dye, and dye for use in said ink” (Mitsubishi Chemical Corporation, priority 2010, dated 2014)
Blank lines part the entries; values can stand above or below the compound they belong to.

Legend:
[1] = Solubility test in low-polarity solvents (saturated solution, λmax, solubility, εC); assay type: physicochemical; details: for Solubility: saturated solution
Protocol: The solubility of each dye in n-decane, tetradecane, Isopar M, Isopar G, and decalin was examined in the following manner. Each dye was added to each solvent until a dissolution residue came to remain, and this mixture was subjected to a 30-minute ultrasonic treatment at 30 degrees. The resultant mixture was allowed to stand at 5° C. for 24 hours and then subjected to centrifugal filtration (centrifugal force, 5,200×g) with a 0.1-μm filter using a microcentrifuge. The saturated solution obtained was diluted to an adequate concentration, and the solubility of each dye was calculated from a relationship with an extinction coefficient determined beforehand. Furthermore, the value of the product of the molar extinction coefficient ε (Lmol^−1cm^−1) and the concentration C (molL^−1) of the saturated solution, εC, was determined.
Sudan Black B (manufactured by Tokyo Kasei Kogyo Co., Ltd.), which is a commercial oil-soluble black dye, was added to n-decane until a dissolution residue came to remain, and this mixture was subjected to a 30-minute ultrasonic treatment at 30 degrees. The resultant mixture was allowed to stand at 5° C. for 24 hours and then subjected to centrifugal filtration (centrifugal force, 5,200×g) with a 0.1-μm filter using a microcentrifuge. The saturated n-decane solution obtained was diluted to an adequate concentration, and the solubility of the dye was calculated from a relationship with an extinction coefficient determined beforehand.

[2] = Light fastness test (retention of dye after 2 hours of high-pressure mercury lamp irradiation); assay type: physicochemical; details: 1 mg in 250 mL, 2 hours irradiation
Protocol: The light fastness of each dye was examined in the following manner. One milligram of each dye was dissolved in 250 mL of each of n-decane, tetradecane, Isopar M, and Isopar G, and the solution was irradiated with light for 2 hours using photoreaction apparatus UVL-400HA (400-W high-pressure mercury lamp), manufactured by Riko-Kagaku Sangyo Co., Ltd. During the irradiation, the vessel was cooled with a coolant to keep the internal temperature at 10-30° C. The retention of the dye was determined through the following calculation to evaluate the light fastness. Retention of dye=(absorbance at absorption-maximum wavelength after irradiation)/(absorbance at absorption-maximum wavelength before irradiation)

[3] = n-decane, stood at 5° C. for 24 hours, 0.1-μm filter
[4] = n-decane, 400-W high-pressure mercury lamp

SMILES: CCCCC(CC)CNc1ccc(NCC(CC)CCCC)c2c1C(=O)c1ccccc1C2=O (stereo not drawn) [Comparative dye 2, reference compound]
- εC ([1]; Isopar G): 1200 cm⁻¹
- λmax (absorption-maximum wavelength) ([1]; Isopar G solution): 649 nm
- Solubility ([1]; Isopar G): 4.3%
- εC ([1]; Isopar M): 1000 cm⁻¹
- λmax (absorption-maximum wavelength) ([1]; Isopar M solution): 650 nm
- Solubility ([1]; Isopar M): 3.6%
- εC ([1]; decalin): 3400 cm⁻¹
- λmax (absorption-maximum wavelength) ([1]; decalin solution): 645 nm
- Solubility ([1]; decalin): 9.98%
- εC (in words) ([1]; each of the low-polarity solvents): small value
- λmax (in words) ([1]; low-polarity solvents): large value
- εC (molar extinction coefficient × concentration of saturated solution) ([1]; n-decane): 2000 cm⁻¹
- λmax (absorption-maximum wavelength) ([1]; n-decane solution): 652 nm
- Solubility [1, 3]: 6.6%
- εC ([1]; tetradecane): 1600 cm⁻¹
- λmax (absorption-maximum wavelength) ([1]; tetradecane solution): 651 nm
- Solubility ([1]; tetradecane): 5.7%
- Light fastness: retention of dye ([2]; Isopar G): 85%
- Light fastness: retention of dye ([2]; Isopar M): 90%
- Light fastness: retention of dye [2, 4]: 92%
- Light fastness: retention of dye ([2]; tetradecane): 99%

SMILES: CCc1nsc(N=Nc2ccc(N(CC(C)C)CC(C)C)cc2NC(C)=O)c1C#N [Dye 1]
- εC (molar extinction coefficient × concentration of saturated solution) ([1]; n-decane): 1000 cm⁻¹
- λmax (absorption-maximum wavelength) ([1]; n-decane solution): 538 nm
- Solubility [1, 3]: 1.1%
- Light fastness: retention of dye [2, 4]: 97%

SMILES: CCCCC(CC)CN(CC(CC)CCCC)c1ccc(N=Nc2sc(C(=O)OCC)c(C)c2C(=O)OCC)c(NC(C)=O)c1 (stereo not drawn) [Dye 3]
- εC (molar extinction coefficient × concentration of saturated solution) ([1]; n-decane): 1300 cm⁻¹
- λmax (absorption-maximum wavelength) ([1]; n-decane solution): 537 nm
- Solubility [1, 3]: 2.4%
- Light fastness: retention of dye [2, 4]: 92%

SMILES: CCCCCCCCN(CC(CC)CCCC)c1ccc(/N=N/c2snc(C)c2C#N)c(C)c1 (stereo not drawn) [Dye 5]
- εC (molar extinction coefficient × concentration of saturated solution) ([1]; n-decane): 1300 cm⁻¹
- λmax (absorption-maximum wavelength) ([1]; n-decane solution): 523 nm
- Solubility [1, 3]: 2.1%

SMILES: CCCCC(CC)CN(CC(CC)CCCC)c1ccc(/N=N/c2sc(C(=O)OCC)c(C)c2C(=O)OCC)c(C)c1 (stereo not drawn) [Dye 6]
- εC (molar extinction coefficient × concentration of saturated solution) ([1]; n-decane): 3200 cm⁻¹
- λmax (absorption-maximum wavelength) ([1]; n-decane solution): 504 nm
- Solubility [1, 3]: 8.4%

SMILES: CCCCC(CC)CN(CC(CC)CCCC)c1ccc(/N=N/c2snc(C)c2C#N)c(CC)c1 (stereo not drawn) [Dye 8]
- εC ([1]; Isopar G): 3600 cm⁻¹
- λmax (absorption-maximum wavelength) ([1]; Isopar G solution): 533 nm
- Solubility ([1]; Isopar G): 5.17%
- εC ([1]; Isopar M): 2500 cm⁻¹
- λmax (absorption-maximum wavelength) ([1]; Isopar M solution): 534 nm
- Solubility ([1]; Isopar M): 3.4%
- εC (molar extinction coefficient × concentration of saturated solution) ([1]; n-decane): 6500 cm⁻¹
- λmax (absorption-maximum wavelength) ([1]; n-decane solution): 533 nm
- Solubility [1, 3]: 10%
- εC ([1]; tetradecane): 2800 cm⁻¹
- λmax (absorption-maximum wavelength) ([1]; tetradecane solution): 534 nm
- Solubility ([1]; tetradecane): 3.9%

SMILES: CCCCC(CC)CN(CC)c1ccc(/N=N/c2snc(CC)c2C#N)c(NC(C)=O)c1 (stereo not drawn) [Dye 11]
- εC (molar extinction coefficient × concentration of saturated solution) ([1]; n-decane): 4300 cm⁻¹
- λmax (absorption-maximum wavelength) ([1]; n-decane solution): 535 nm
- Solubility [1, 3]: 4.2%

SMILES: CCCCc1nsc(/N=N/c2ccc(N(CC(C)C)CC(C)C)cc2NC(C)=O)c1C#N [Dye 12]
- εC (molar extinction coefficient × concentration of saturated solution) ([1]; n-decane): 4100 cm⁻¹
- λmax (absorption-maximum wavelength) ([1]; n-decane solution): 543 nm
- Solubility [1, 3]: 5.7%

SMILES: CCCCc1nsc(/N=N/c2ccc(N(CC(CC)CCCC)CC(CC)CCCC)cc2C)c1C#N (stereo not drawn) [Dye 13]
- εC (molar extinction coefficient × concentration of saturated solution) ([1]; n-decane): 3700 cm⁻¹
- λmax (absorption-maximum wavelength) ([1]; n-decane solution): 527 nm
- Solubility [1, 3]: 5.9%

SMILES: CCCCC(CC)CN(CC(CC)CCCC)c1ccc(/N=N/c2snc(C(C)C)c2C#N)c(C)c1 (stereo not drawn) [Dye 14]
- εC (molar extinction coefficient × concentration of saturated solution) ([1]; n-decane): 2800 cm⁻¹
- λmax (absorption-maximum wavelength) ([1]; n-decane solution): 527 nm
- Solubility [1, 3]: 4.8%

SMILES: CCCCC(CC)CN(CC(CC)CCCC)c1ccc(/N=N/c2snc(C)c2C#N)c(C(C)C)c1 (stereo not drawn) [Dye 15]
- εC (molar extinction coefficient × concentration of saturated solution) ([1]; n-decane): 8300 cm⁻¹
- λmax (absorption-maximum wavelength) ([1]; n-decane solution): 535 nm
- Solubility [1, 3]: 9.7%

The next lines start with the values.

- εC ([1]; Isopar G): ≦10 cm^−1
- Solubility ([1]; Isopar G): ≦0.01%
- εC ([1]; Isopar M): ≦10 cm^−1
- Solubility ([1]; Isopar M): ≦0.01%
- εC ([1]; decalin): ≦10 cm^−1
- λmax (absorption-maximum wavelength) ([1]; decalin solution): 520 nm
- Solubility ([1]; decalin): ≦0.01%
- εC (molar extinction coefficient × concentration of saturated solution) ([1]; n-decane): ≦10 cm^−1
- Solubility [1, 3]: ≦0.01%
- εC ([1]; tetradecane): ≦10 cm^−1
- Solubility ([1]; tetradecane): ≦0.01%
- Light fastness: retention of dye [2, 4]: 76%
SMILES: C=Cn1c(N=Nc2ccc(N(CCCC)CCCC)cc2NC(C)=O)nc(C#N)c1C#N [Comparative dye 3, reference compound]

- εC ([1]; Isopar G): 5000 cm⁻¹
- λmax (absorption-maximum wavelength) ([1]; Isopar G solution): 542 nm
- Solubility ([1]; Isopar G): 5.7%
- εC ([1]; Isopar M): 4000 cm⁻¹
- λmax (absorption-maximum wavelength) ([1]; Isopar M solution): 544 nm
- Solubility ([1]; Isopar M): 4.32%
- εC ([1]; decalin): 24000 cm⁻¹
- λmax (absorption-maximum wavelength) ([1]; decalin solution): 547 nm
- Solubility ([1]; decalin): 24.5%
- εC (molar extinction coefficient × concentration of saturated solution) ([1]; n-decane): 6600 cm⁻¹
- λmax (absorption-maximum wavelength) ([1]; n-decane solution): 543 nm
- Solubility [1, 3]: 7.9%
- εC ([1]; tetradecane): 4900 cm⁻¹
- λmax (absorption-maximum wavelength) ([1]; tetradecane solution): 545 nm
- Solubility ([1]; tetradecane): 5.4%
- Light fastness: retention of dye ([2]; Isopar G): 100%
- Light fastness: retention of dye ([2]; Isopar M): 100%
- Light fastness: retention of dye [2, 4]: 97%
- Light fastness: retention of dye ([2]; tetradecane): 94%
SMILES: CCCCC(CC)CN(CC(CC)CCCC)c1ccc(N=Nc2snc(C)c2C#N)c(NC(C)=O)c1 (stereo not drawn) [Dye 2]

- εC ([1]; Isopar G): 11500 cm⁻¹
- λmax (absorption-maximum wavelength) ([1]; Isopar G solution): 543 nm
- Solubility ([1]; Isopar G): 13.3%
- εC ([1]; Isopar M): 8900 cm⁻¹
- λmax (absorption-maximum wavelength) ([1]; Isopar M solution): 544 nm
- Solubility ([1]; Isopar M): 9.8%
- εC ([1]; decalin): 8500 cm⁻¹
- λmax (absorption-maximum wavelength) ([1]; decalin solution): 547 nm
- Solubility ([1]; decalin): 9.1%
- εC (molar extinction coefficient × concentration of saturated solution) ([1]; n-decane): 11000 cm⁻¹
- λmax (absorption-maximum wavelength) ([1]; n-decane solution): 543 nm
- Solubility [1, 3]: 13%
- εC ([1]; tetradecane): 7400 cm⁻¹
- λmax (absorption-maximum wavelength) ([1]; tetradecane solution): 544 nm
- Solubility ([1]; tetradecane): 8.5%
SMILES: CCCCC(CC)CN(CC(CC)CCCC)c1ccc(/N=N/c2snc(C)c2C#N)c(NC(=O)CC)c1 (stereo not drawn) [Dye 9]

- εC (molar extinction coefficient × concentration of saturated solution) ([1]; n-decane): 2300 cm⁻¹
- λmax (absorption-maximum wavelength) ([1]; n-decane solution): 563 nm
- Solubility [1, 3]: 3.7%
SMILES: CCCCC(CC)CN(CC(CC)CCCC)c1cc(C)c(/N=N/c2snc(C)c2C#N)cc1OC (stereo not drawn) [Dye 16]

- εC (molar extinction coefficient × concentration of saturated solution) ([1]; n-decane): 12000 cm⁻¹
- λmax (absorption-maximum wavelength) ([1]; n-decane solution): 523 nm
- Solubility [1, 3]: 9.2%
SMILES: CCCCC(CC)CN(CC(CC)CCCC)c1ccc(/N=N/c2snc(C)c2C#N)cc1 (stereo not drawn) [Dye 17]

- εC (molar extinction coefficient × concentration of saturated solution) ([1]; n-decane): 1000 cm⁻¹
- λmax (absorption-maximum wavelength) ([1]; n-decane solution): 498 nm
- Solubility [1, 3]: 1.7%
SMILES: CCOC(=O)c1sc(/N=N/c2ccc(N(CC(C)C)CC(C)C)cc2C)c(C(=O)OCC)c1C [Dye 18]

- εC (molar extinction coefficient × concentration of saturated solution) ([1]; n-decane): 6000 cm⁻¹
- λmax (absorption-maximum wavelength) ([1]; n-decane solution): 546 nm
- Solubility [1, 3]: 9.7%
SMILES: CCCCC(CC)CN(CC(CC)CCCC)c1ccc(/N=N/c2sc(C(=O)OCC)c(C)c2C#N)c(CC)c1 (stereo not drawn) [Dye 20]
